Holding throughout (type): physicochemical
A short description of data set [1]: Kinetic solubility of the compound incubated for 60 mins under shaking condition by UV-Vis spectroscopic analysis. Conditions: 1 h.
Data set [2] is described as follows: Kinetic solubility of the compound incubated for 60 mins under shaking condition by UHPLC-MS analysis. As to conditions: 1 h.
Data set [3] is described as follows: Distribution coefficient, logD of compound in n-Octanol/PBS at pH 7.4 incubated for 30 mins under shaking condition by UV-Vis spectroscopic analysis. Conditions: for logD at 0.5 h: n-octanol/PBS, pH 7.4; for logD: octanol/water, pH 7.4, 0.5 h, BLD = below limit of detection.
Data set [4] in a line: Distribution coefficient, logD of compound in n-Octanol/PBS at pH 7.4 incubated for 30 mins under shaking condition by UHPLC-MS analysis.

By logD is commonly meant lipophilicity at a set pH, counting ionised and neutral species.

Turning to `COc1cc(C(=O)NCCCCCCNC(=O)COc2c(-c3csc(N4CCOCC4)n3)ccc(F)c2F)ccc1NC(=O)[C@@H]1N[C@@H](CC(C)(C)C)[C@](C#N)(c2ccc(Cl)cc2F)[C@H]1c1cccc(Cl)c1F`, the “log(Kinetic_solubility)” value in data set [1] (BLD = below limit of detection) and in data set [2] (BLD = below limit of detection) was “Bld” in each case. Moreover, the log distribution coefficient (logD) at 0.5 h in data set [3] was found to be 3.7; in data set [4], 4.

For the compound `O=C(COc1c(-c2csc(N3CCOCC3)n2)ccc(F)c1F)NCCCCCCCCCCNc1ccc2nnn(C3CCC(=O)NC3=O)c(=O)c2c1` (centres undefined), the “log(Kinetic_solubility)” value in data set [1] (BLD = below limit of detection) and in data set [2] (BLD = below limit of detection) was “Bld” in each case. Moreover, the logD result in data set [3] is “Bld”. In data set [4], this compound returned a logD at 0.5 h of 4.93.

As for `COc1ccc2c(c1)c(CC(=O)N1CCN(CC(=O)N[C@H](C(=O)N3C[C@H](O)C[C@H]3C(=O)N[C@@H](C)c3ccc(-c4scnc4C)cc3)C(C)(C)C)CC1)c(C)n2C(=O)c1ccc(Cl)cc1`, the figures for the “log(Kinetic_solubility)” value in data set [1] (BLD = below limit of detection) and in data set [2] were “Bld” and -6.62, respectively. In addition, the logD result in data set [3] is “Bld”. The compound further displayed a logD at 0.5 h in data set [4] of 5.3.

Take `Cn1c(=O)n(C)c2cc(CNCCOCCOCCNCC3CCN(c4ccc(C(=O)N[C@H]5CC[C@H](Oc6ccc(C#N)c(Cl)c6)CC5)nn4)CC3)ccc21`: the “log(Kinetic_solubility)” value in data set [1] is recorded as -3.07; in data set [2], -3.06. For the same compound, the log distribution coefficient (logD) at 0.5 h was 2.45 in data set [3] and 2.52 in data set [4].

As for `Cc1ncsc1-c1ccc([C@H](CC(=O)NCCCCCCNC(=O)COc2c(-c3csc(N4CCOCC4)n3)ccc(F)c2F)NC(=O)[C@@H]2C[C@@H](O)CN2C(=O)[C@@H](NC(=O)C2(F)CC2)C(C)(C)C)cc1`, the “log(Kinetic_solubility)” value in data set [1] was -5; in data set [2] it was -5.14. Also, in data set [3], the logD entry is “Bld”. In data set [4], this compound returned a log distribution coefficient (logD) at 0.5 h of 4.82.

Turning to `CCOC(=O)c1c(C)n(Cc2ccccc2)c2ccc(OCCCCCCCCCCC(=O)N[C@H](C(=O)N3C[C@H](O)C[C@H]3C(=O)N[C@@H](C)c3ccc(-c4scnc4C)cc3)C(C)(C)C)cc12`, the “log(Kinetic_solubility)” value in data set [1] (BLD = below limit of detection) and in data set [2] (BLD = below limit of detection) was “Bld” throughout. Also, in data set [3], the logD entry was “Bld”. Further, the pH-dependent lipophilicity (logD) at 0.5 h in data set [4] amounted to 5.2.

Turning to `Cc1ncsc1-c1ccc([C@H](C)NC(=O)[C@@H]2C[C@@H](O)CN2C(=O)[C@@H](NC(=O)CNCCOCCOc2c(-c3csc(N4CCOCC4)n3)ccc(F)c2F)C(C)(C)C)cc1`, the entries for the “log(Kinetic_solubility)” value in data set [1] and in data set [2] were -4.82 and -5.22, respectively. In addition, the logD entry in data set [3] is on record as “Bld”. In data set [4], this compound gave a logD at 0.5 h of 5.2.

On to `COc1ccc2c(c1)c(CC(=O)NCCN1CCN(C(=O)CCC(=O)N[C@H](C(=O)N3C[C@H](O)C[C@H]3C(=O)N[C@@H](C)c3ccc(-c4scnc4C)cc3)C(C)(C)C)CC1)c(C)n2C(=O)c1ccc(Cl)cc1`, for which the “log(Kinetic_solubility)” value in data set [1] is given as -5.22; in data set [2], -5.7. Moreover, in data set [3], the log distribution coefficient (logD) result is reported as “Bld”. Further, in data set [4], the pH-dependent lipophilicity (logD) at 0.5 h worked out at 4.8.

In the case of `Cc1ncsc1-c1ccc(CNC(=O)[C@@H]2C[C@@H](O)CN2C(=O)[C@@H](NC(=O)CCCCOCCCCCOCCCCCCNc2cccc3c2C(=O)N(C2CCC(=O)NC2=O)C3=O)C(C)(C)C)cc1` (some centres undefined), the “log(Kinetic_solubility)” value is “Bld” in data set [1] (BLD = below limit of detection) and -7.05 in data set [2]. Further, the logD result in data set [3] was “Bld”. This compound also gave a logD at 0.5 h in data set [4] of 5.2.

As for `CCOC(=O)c1c(C)n(Cc2ccccc2)c2ccc(OCCCCCCCCC(=O)N[C@H](C(=O)N3C[C@H](O)C[C@H]3C(=O)N[C@@H](C)c3ccc(-c4scnc4C)cc3)C(C)(C)C)cc12`, the “log(Kinetic_solubility)” value in data set [1] (BLD = below limit of detection) and in data set [2] (BLD = below limit of detection) was “Bld” in each case. Moreover, the logD entry in data set [3] is recorded as “Bld”. For the same compound, the log distribution coefficient (logD) at 0.5 h in data set [4] is 5.21.

For `COc1ccc2c(c1)c(CC(=O)NCCCCC(=O)N[C@H](C(=O)N1C[C@H](O)C[C@H]1C(=O)N[C@@H](C)c1ccc(-c3scnc3C)cc1)C(C)(C)C)c(C)n2C(=O)c1ccc(Cl)cc1`, the “log(Kinetic_solubility)” value in data set [1] (BLD = below limit of detection) is on record as “Bld”; in data set [2], -6.1. Also, the logD entry in data set [3] is “Bld”. Also, the log distribution coefficient (logD) at 0.5 h in data set [4] stood at 5.47.

The values above are taken from ChEMBL document CHEMBL5579898, “Between Theory and Practice: Computational/Experimental Integrated Approaches to Understand the Solubility and Lipophilicity of PROTACs” (J Med Chem, 2024).
